The text below walks through data of patent US3940382A, “1,2'-Di-N-substituted kanamycin B compounds” (Zaidan Hojin Biseibutsu Kagaku Kenkyu Kai, priority 1973, dated 1976).

Each structure is given as a SMILES string. ≈ marks a conversion by molar mass, not a printed value. Where only a bound is given, the exact number is not on record here.

For assay [1], the system named is kanamycin-resistant strains. The conditions noted are these: strains phosphorylating the 3'-hydroxyl group of kanamycins; cited from earlier work.
Assay [2] has as its system Escherichia coli JR66/W677. The conditions noted are these: strain adenylylating the 2"-hydroxyl group; cited from earlier work.
The subject of assay [3] is drug-resistant bacteria. The conditions noted are these: cited from earlier work.
The test system of assay [4] is gram-negative and gram-positive bacteria sensitive to the kanamycins. The conditions noted are these: cited from earlier work.
The test system of assay [5] is Staphylococcus aureus Smith. As to the kind of experiment: MIC, serial dilution on nutrient agar. Format: cell-based. The following applies: Staphylococcus aureus Smith; nutrient agar, 37°C, 18 hours; read-out: Minimum Inhibitory Concentrations.
Assay [6] has as its system Staphylococcus aureus FDA 209P. Description: MIC, serial dilution on nutrient agar. It is filed as cell-based. The following applies: Staphylococcus aureus, FDA209P, 18 h, read-out: Minimum Inhibitory Concentrations.
The test system of assay [7] is Staphylococcus aureus Terejima. As to the kind of experiment: MIC, serial dilution on nutrient agar. Format: cell-based. The following applies: Staphylococcus aureus Terejima; nutrient agar, 37°C, 18 hours; read-out: Minimum Inhibitory Concentrations.
The test system of assay [8] is Sarcina lutea PCI 1001. Description: MIC, serial dilution on nutrient agar. Format: cell-based. The conditions noted are these: Micrococcus luteus, PCI1001, 18 h, read-out: Minimum Inhibitory Concentrations.
The subject of assay [9] is Bacillus anthracis. Description: microbe, parasite or virus in culture. It is filed as cell-based. The following applies: 18 h, read-out: Minimum Inhibitory Concentrations.
For assay [10], the system named is Bacillus subtilis PCI 219. Description: MIC, serial dilution on nutrient agar. It is filed as cell-based. The conditions noted are these: PCI219; Bacillus subtilis PCI 219; nutrient agar, 37°C, 18 hours; read-out: Minimum Inhibitory Concentrations.
Assay [11] deals with Bacillus subtilis NRRL B-558. As to the kind of experiment: MIC, serial dilution on nutrient agar. Format: cell-based. The following applies: NRRLB558; Bacillus subtilis NRRL B-558; nutrient agar, 37°C, 18 hours; read-out: Minimum Inhibitory Concentrations.
The subject of assay [12] is Bacillus cereus ATCC 10702. As to the kind of experiment: MIC, serial dilution on nutrient agar. It is filed as cell-based. The conditions noted are these: Bacillus cereus, ATCC10702, 18 h, read-out: Minimum Inhibitory Concentrations.
Assay [13] deals with Corynebacterium bovis 1810. As to the kind of experiment: MIC, serial dilution on nutrient agar. It is filed as cell-based. The following applies: Corynebacterium bovis, 1810, 18 h, read-out: Minimum Inhibitory Concentrations.
Assay [14] relates to Mycobacterium smegmatis ATCC 607. As to the kind of experiment: MIC, serial dilution on nutrient agar. It is filed as cell-based. The following applies: Mycolicibacterium smegmatis, ATCC607; Mycobacterium smegmatis ATCC 607; nutrient agar, 37°C, 18 hours; read-out: Minimum Inhibitory Concentrations.
The test system of assay [15] is Shigella dysenteriae JS 11910. Description: MIC, serial dilution on nutrient agar. Format: cell-based. The following applies: JS11910, 18 h, read-out: Minimum Inhibitory Concentrations.
Assay [16] has as its system Escherichia coli K-12 ML 1630. As to the kind of experiment: MIC, serial dilution on nutrient agar. It is filed as cell-based. The conditions noted are these: K12ML1630, 37°C, 18 hours, read-out: Minimum Inhibitory Concentrations. Here is the method:
(§1) The minimum inhibitory concentrations (mcg/ml) of 1,2'-di-N-[(S)-4-amino-2-hydroxybutyryl]-kanamycin B (abbreviated as 1,2'-AHB-KMB), 1,2'-di-N-[(S)-4-amino-2-hydroxybutyryl]-3',4'-dideoxykanamycin B (abbreviated as 1,2'-AHB-DKB), 1,2'-di-N-DL-isoseryl-3',4'-dideoxykanamycin B (abbreviated as 1,2'-IS-DKB) and 1,2'-di-N-DL-isoseryl-kanamycin B (abbreviated as 1,2'-IS-KMB) against various microorganisms were determined according to serial dilution method using nutrient agar medium at 37°C, the estimation being effected after 18 hours incubation. For comparison, the minimum inhibitory concentrations of kanamycin B (abbreviated as KMB) and 3',4'-dideoxykanamycin B (abbreviated as DKB) were also determined in the same manner as mentioned above.

In assay [17] the test system is Shigella flexneri 4b JS 11811. Description: MIC, serial dilution on nutrient agar. The conditions noted are these: 4BJS11811, 37°C, 18 hours, read-out: Minimum Inhibitory Concentrations. Format: cell-based. Here is the method:
as §1

In assay [18] the test system is Shigella sonnei JS 11746. Description: MIC, serial dilution on nutrient agar. It is filed as cell-based. The following applies: JS11746, 37°C, 18 hours, read-out: Minimum Inhibitory Concentrations. Here is the method:
as §1

Assay [19] has as its system Salmonella typhosa T-63. Description: MIC, serial dilution on nutrient agar. Format: cell-based. The conditions noted are these: Salmonella enterica, 18 h, read-out: Minimum Inhibitory Concentrations.
Assay [20] relates to Salmonella enteritidis 1891. As to the kind of experiment: MIC, serial dilution on nutrient agar. It is filed as cell-based. The following applies: Salmonella enterica, ENTERITIDIS, 18 h, read-out: Minimum Inhibitory Concentrations.
Assay [21] deals with Proteus vulgaris OX 19. Description: MIC, serial dilution on nutrient agar. The conditions noted are these: Proteus vulgaris, OX19, 18 h, read-out: Minimum Inhibitory Concentrations. It is filed as cell-based.
Assay [22] concerns Klebsiella pneumoniae PCI 602. Description: MIC, serial dilution on nutrient agar. Format: cell-based. The conditions noted are these: Klebsiella pneumoniae, PCI602, 18 h, read-out: Minimum Inhibitory Concentrations.
Assay [23] deals with Klebsiella pneumoniae 22 -3038. Description: MIC, serial dilution on nutrient agar. The conditions noted are these: Klebsiella pneumoniae, 223038, 18 h, read-out: Minimum Inhibitory Concentrations. It is filed as cell-based.
The test system of assay [24] is Escherichia coli NIHJ. Description: MIC, serial dilution on nutrient agar. Format: cell-based. The conditions noted are these: Escherichia coli, 18 h, read-out: Minimum Inhibitory Concentrations.
Assay [25] relates to Escherichia coli K-12. Description: MIC, serial dilution on nutrient agar. Format: cell-based. The conditions noted are these: Escherichia coli, K12, 18 h, read-out: Minimum Inhibitory Concentrations.
Assay [26] has as its system Escherichia coli K-12 ML 1629. As to the kind of experiment: MIC, serial dilution on nutrient agar. Format: cell-based. The conditions noted are these: Escherichia coli, K12ML1629, 18 h, read-out: Minimum Inhibitory Concentrations.
In assay [27] the test system is Escherichia coli K-12 ML 1410. As to the kind of experiment: MIC, serial dilution on nutrient agar. Format: cell-based. The following applies: Escherichia coli, K12ML1410, 18 h, read-out: Minimum Inhibitory Concentrations.
The subject of assay [28] is Escherichia coli K-12 ML 1410 R81. Description: MIC, serial dilution on nutrient agar. Format: cell-based. The conditions noted are these: 18 h, read-out: Minimum Inhibitory Concentrations.
Assay [29] has as its system Escherichia coli LA290 R55. Description: MIC, serial dilution on nutrient agar. It is filed as cell-based. The conditions noted are these: LA290R55, 18 h, read-out: Minimum Inhibitory Concentrations.
In assay [30] the test system is Escherichia coli LA290 R56. Description: MIC, serial dilution on nutrient agar. Format: cell-based. The conditions noted are these: LA290R56, 18 h, read-out: Minimum Inhibitory Concentrations.
Assay [31] deals with Escherichia coli LA290 R64. As to the kind of experiment: MIC, serial dilution on nutrient agar. It is filed as cell-based. The conditions noted are these: LA290R64, 18 h, read-out: Minimum Inhibitory Concentrations.
Assay [32] has as its system Escherichia coli W677. Description: MIC, serial dilution on nutrient agar. It is filed as cell-based. The following applies: Escherichia coli W677; nutrient agar, 37°C, 18 hours; read-out: Minimum Inhibitory Concentrations.
For assay [33], the system named is Escherichia coli JR66/W677. As to the kind of experiment: MIC, serial dilution on nutrient agar. Format: cell-based. The conditions noted are these: Escherichia coli, JR66/W677, 18 h, read-out: Minimum Inhibitory Concentrations.
For assay [34], the system named is Pseudomonas aeruginosa A3. Description: MIC, serial dilution on nutrient agar. Format: cell-based. The following applies: Pseudomonas aeruginosa, A3, 18 h, read-out: Minimum Inhibitory Concentrations.
Assay [35] deals with Pseudomonas aeruginosa No.12. Description: MIC, serial dilution on nutrient agar. It is filed as cell-based. The conditions noted are these: Pseudomonas aeruginosa No.12; nutrient agar, 37°C, 18 hours; read-out: Minimum Inhibitory Concentrations.
In assay [36] the test system is Pseudomonas aeruginosa TI-13. Description: MIC, serial dilution on nutrient agar. It is filed as cell-based. The conditions noted are these: TI13; Pseudomonas aeruginosa TI-13; nutrient agar, 37°C, 18 hours; read-out: Minimum Inhibitory Concentrations.
Assay [37] has as its system Pseudomonas aeruginosa GN315. Description: MIC, serial dilution on nutrient agar. It is filed as cell-based. The conditions noted are these: Pseudomonas aeruginosa GN315; nutrient agar, 37°C, 18 hours; read-out: Minimum Inhibitory Concentrations.
For assay [38], the system named is Pseudomonas aeruginosa 99. As to the kind of experiment: MIC, serial dilution on nutrient agar. It is filed as cell-based. The conditions noted are these: Pseudomonas aeruginosa 99; nutrient agar, 37°C, 18 hours; read-out: Minimum Inhibitory Concentrations.

On to `NC[C@H]1O[C@H](O[C@H]2[C@H](O)[C@@H](O[C@H]3O[C@H](CO)[C@@H](O)[C@H](N)[C@H]3O)[C@H](N)C[C@@H]2N)[C@H](O)C[C@@H]1O` [3'-deoxykanamycin], for which, in [1], the “effectiveness against kanamycin-resistant strains” value was “actually effective”. Moreover, the “activity against kanamycin-resistant strains such as Escherichia coli JR66/W677” value in [2] is “practically inactive”.
Consider `NCC(O)C(=O)N[C@@H]1C[C@H](N)[C@@H](O[C@H]2O[C@H](CN)CC[C@H]2N)[C@H](O)[C@H]1O[C@H]1O[C@H](CO)[C@@H](O)[C@H](N)[C@H]1O` (stereo partly drawn) [1-N-isoseryl-3',4'-dideoxykanamycin B], for which the “antibacterial activity against the drug-resistant bacteria” value (“antibacterial activity” for short) in assay [3] is recorded as “effective”. Besides, in [4], the “effectiveness against bacteria sensitive to the kanamycins” value (shortened to “effectiveness against bacteria sensitive”) is “effective”.
In the case of `NCC(O)C(=O)N[C@@H]1C[C@H](N)[C@@H](O[C@H]2O[C@H](CN)[C@@H](O)[C@H](O)[C@H]2O)[C@H](O)[C@H]1O[C@H]1O[C@H](CO)[C@@H](O)[C@H](N)[C@H]1O` (stereo partly drawn) [1-N-isoserylkanamycin], in assay [3], the “antibacterial activity” value is given as “effective”. For the same compound, in assay [4], the “effectiveness against bacteria sensitive” value was “effective”.
Turning to `NCC(O)C(=O)N[C@@H]1C[C@H](N)[C@@H](O[C@H]2O[C@H](CN)[C@@H](O)[C@H](O)[C@H]2N)[C@H](O)[C@H]1O[C@H]1O[C@H](CO)[C@@H](O)[C@H](N)[C@H]1O` (stereo partly drawn) [1N-isoserylkanamycinB], in assay [3], the “antibacterial activity” value was “effective”. In addition, the “effectiveness against bacteria sensitive” value in [4] is on record as “effective”.
For the compound `NCC[C@H](O)C(=O)N[C@H]1[C@@H](O[C@H]2[C@H](O)[C@@H](O[C@H]3O[C@H](CO)[C@@H](O)[C@H](N)[C@H]3O)[C@H](NC(=O)[C@@H](O)CCN)C[C@@H]2N)O[C@H](CN)[C@@H](O)[C@@H]1O` [1,2'-AHB-KMB, 1,2'-di-N-[(S)-4-amino-2-hydroxybutyryl]-kanamycin B], the MIC in assay [5] was 0.39 µg/mL (≈ 0.569 µM); in assay [6] it was 6.25 µg/mL (≈ 9.11 µM); in [7] it was below 0.2 µg/mL; in assay [8] it was 6.25 µg/mL (≈ 9.11 µM); in assay [9], 0.39 µg/mL (≈ 0.569 µM); in assay [10], below 0.2 µg/mL. Also, the MIC in assay [11] turned out to be 0.78 µg/mL (≈ 1.14 µM); in assay [12], 12.5 µg/mL (≈ 18.2 µM); in [13] it was 3.13 µg/mL (≈ 4.56 µM); in assay [14] it was 0.78 µg/mL (≈ 1.14 µM); in assay [15], 12.5 µg/mL (≈ 18.2 µM); in assay [16], 3.13 µg/mL (≈ 4.56 µM). Further, the MIC in assay [17] amounted to 12.5 µg/mL (≈ 18.2 µM); in assay [18], 6.25 µg/mL (≈ 9.11 µM); in [19], 3.13 µg/mL (≈ 4.56 µM); in [20], 3.13 µg/mL (≈ 4.56 µM); in [21], 3.13 µg/mL (≈ 4.56 µM); in assay [22] it was 3.13 µg/mL (≈ 4.56 µM). The MIC in [23] was 3.13 µg/mL (≈ 4.56 µM); in assay [24], 6.25 µg/mL (≈ 9.11 µM); in [25] it was 3.13 µg/mL (≈ 4.56 µM); in assay [26], 3.13 µg/mL (≈ 4.56 µM); in assay [27] it was 3.13 µg/mL (≈ 4.56 µM); in [28] it was 6.25 µg/mL (≈ 9.11 µM). Also, the MIC in assay [29] was 3.13 µg/mL (≈ 4.56 µM); in [30] it was 1.56 µg/mL (≈ 2.27 µM); in assay [31], 1.56 µg/mL (≈ 2.27 µM); in [32] it was 1.56 µg/mL (≈ 2.27 µM); in assay [33], 6.25 µg/mL (≈ 9.11 µM); in assay [34], 12.5 µg/mL (≈ 18.2 µM). Further, the MIC is 25 µg/mL (≈ 36.5 µM) in [35], 25 µg/mL (≈ 36.5 µM) in [36], above 100 µg/mL in assay [37] and 50 µg/mL (≈ 72.9 µM) in assay [38].
